In patent US20230303564A1, “PYRIMIDINE RING COMPOUND” (MEDSHINE DISCOVERY INC., priority 2020, published 2023):
pIC50: −log10 of the molar value.

Assays:
[1] = molecular target: CDK9/CyclinT1 (Homo sapiens (Human), UniProt P50750); assay: CDK9/CyclinT1 enzyme activity test (ADP-Glo); type: biochemical; conditions: 100 μM ATP, 25° C. 120 minutes, read-out: CDK 9/Cyclin T1 IC50
Method: CDK9/CyclinT1 Enzyme Reaction System
(§1) Enzymes, substrates, ATP, and inhibitors were diluted by kinase buffer in the kit. The compounds to be tested were diluted 5-fold with a multi-channel pipette to the eighth concentration, that is, from 50 μM to 0.65 nM, the concentration of DMSO was 5%, and a double-hole experiment was set up. 1 μL of each concentration gradient of inhibitors, 2 μL of CDK9/CyclinT1 enzyme (4 ng), 2 μL mixture of substrate and ATP (100 μM ATP, 0.2 μg/μL substrate) were added to the microplates, and the final concentration gradient of the compound was 10 μM to 0.13 nM. The reaction system was reacted at 25° C. for 120 minutes. After the reaction, 5 μL of ADP-Glo reagent was added to each well, the reaction was carried out at 25° C. for 40 minutes, after the reaction was completed, 10 μL of kinase detection reagent was added to each well, the reaction was carried out at 25° C. for 30 minutes, the multiple label analyzer was used to read the chemiluminescence with an integration time of 0.5 seconds.
(§2) The equation (Sample−Min)/(Max−Min)*100% was used to convert the raw data into inhibition rate, and the value of IC50 can be obtained by curve fitting with four parameters (obtained by log (inhibitor) vs. response-Variable slope mode in GraphPad Prism). The enzymatic inhibitory activity of the compounds of the present disclosure on CDK1/CyclinB1, CDK2/CyclinA2, CDK2/CyclinE1, CDK4/CyclinD1, CDK6/CyclinD1, CDK7/CyclinH/MAT1, CDK9/CyclinT1 was provided in Table 1.

[2] = molecular target: CDK1/CyclinB1 (Homo sapiens (Human), UniProt P06493); assay: CDK1/CyclinB1 enzyme activity test (ADP-Glo); type: biochemical; conditions: 25 μM ATP, 25° C. 120 minutes, read-out: CDK1/Cyclin B IC50
Method: CDK1/CyclinB1 Enzyme Reaction System
as §1, with “of CDK1/CyclinB1” for “of CDK9/CyclinT1”, “enzyme (12.5” for “enzyme (4”, “ATP (25” for “ATP (100”, “μM adenosine triphosphate,” for “μM ATP,”
as §2

[3] = Pharmacokinetic evaluation in CD-1 (ICR) mice, oral; type: in vivo, mouse; conditions: male CD-1 (ICR) mice, oral 5 mg/kg, plasma
Method: Experimental Scheme of Compounds 18, 19 and 20
The healthy adult male CD-1 (ICR) mice used in this study were purchased from Pinghu Weitong Lihua Experimental Animal Technology Co., Ltd.
0.300 mL of the stock solution was measured and vortexed for 2 minutes to obtain a homogeneous suspension at a concentration of 1 mg/mL, and the administration vehicle was 1% HPMC in water.
Two male CD-1 (ICR) mice were given 5 mg/kg of the compound to be tested by intragastric administration.
The blood of two animals was collected at each time point by serial blood collection. 30 μL of whole blood was collected respectively at 0.25, 0.5, 1, 2, 4, 8, and 24 hours after administration. The whole blood was placed in an anticoagulant tube, centrifuged at 3200 g for 10 minutes at 4° C., plasma was prepared and stored at −60° C. or lower. The drug concentration in plasma was determined by LC/MS-MS.

CDK9/CyclinT1, sequence (P50750 whole entry): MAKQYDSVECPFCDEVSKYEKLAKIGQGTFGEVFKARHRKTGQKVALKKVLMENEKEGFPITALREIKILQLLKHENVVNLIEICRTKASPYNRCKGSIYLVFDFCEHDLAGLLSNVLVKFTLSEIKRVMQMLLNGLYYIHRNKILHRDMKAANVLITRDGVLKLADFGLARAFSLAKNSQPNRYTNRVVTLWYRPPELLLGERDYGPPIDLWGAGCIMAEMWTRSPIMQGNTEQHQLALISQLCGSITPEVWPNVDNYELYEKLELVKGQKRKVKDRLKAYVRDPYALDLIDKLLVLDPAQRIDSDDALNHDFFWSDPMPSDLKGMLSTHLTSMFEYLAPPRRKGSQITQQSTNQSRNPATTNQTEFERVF
CDK9/CyclinT1, sequence (O60563 whole entry partner): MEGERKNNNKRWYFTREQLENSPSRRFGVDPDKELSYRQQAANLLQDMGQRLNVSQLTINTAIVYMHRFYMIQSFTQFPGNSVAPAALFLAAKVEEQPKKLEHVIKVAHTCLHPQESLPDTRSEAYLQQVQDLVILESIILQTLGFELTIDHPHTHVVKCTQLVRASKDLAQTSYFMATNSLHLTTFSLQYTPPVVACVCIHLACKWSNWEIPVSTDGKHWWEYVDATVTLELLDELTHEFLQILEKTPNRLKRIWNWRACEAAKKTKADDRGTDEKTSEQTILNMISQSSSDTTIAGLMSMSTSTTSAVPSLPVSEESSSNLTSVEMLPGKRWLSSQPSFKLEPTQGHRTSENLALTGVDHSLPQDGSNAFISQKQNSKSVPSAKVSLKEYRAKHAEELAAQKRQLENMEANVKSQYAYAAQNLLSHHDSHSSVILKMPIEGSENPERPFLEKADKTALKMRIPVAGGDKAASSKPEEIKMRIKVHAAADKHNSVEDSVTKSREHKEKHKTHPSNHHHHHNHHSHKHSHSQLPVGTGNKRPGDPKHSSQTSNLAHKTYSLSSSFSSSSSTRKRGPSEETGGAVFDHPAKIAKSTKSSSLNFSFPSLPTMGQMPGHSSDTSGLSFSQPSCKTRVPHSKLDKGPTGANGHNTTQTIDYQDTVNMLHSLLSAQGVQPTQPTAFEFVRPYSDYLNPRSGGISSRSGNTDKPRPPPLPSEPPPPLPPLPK
CDK1/CyclinB1, sequence (P06493 whole entry): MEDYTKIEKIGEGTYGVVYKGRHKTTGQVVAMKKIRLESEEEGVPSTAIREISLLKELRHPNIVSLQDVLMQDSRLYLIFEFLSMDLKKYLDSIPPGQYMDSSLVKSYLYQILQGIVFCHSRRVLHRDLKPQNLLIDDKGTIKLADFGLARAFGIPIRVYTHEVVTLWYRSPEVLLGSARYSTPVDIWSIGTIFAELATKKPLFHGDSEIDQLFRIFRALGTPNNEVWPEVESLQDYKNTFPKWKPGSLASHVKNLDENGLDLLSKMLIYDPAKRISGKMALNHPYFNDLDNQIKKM
CDK1/CyclinB1, sequence (P14635 whole entry partner): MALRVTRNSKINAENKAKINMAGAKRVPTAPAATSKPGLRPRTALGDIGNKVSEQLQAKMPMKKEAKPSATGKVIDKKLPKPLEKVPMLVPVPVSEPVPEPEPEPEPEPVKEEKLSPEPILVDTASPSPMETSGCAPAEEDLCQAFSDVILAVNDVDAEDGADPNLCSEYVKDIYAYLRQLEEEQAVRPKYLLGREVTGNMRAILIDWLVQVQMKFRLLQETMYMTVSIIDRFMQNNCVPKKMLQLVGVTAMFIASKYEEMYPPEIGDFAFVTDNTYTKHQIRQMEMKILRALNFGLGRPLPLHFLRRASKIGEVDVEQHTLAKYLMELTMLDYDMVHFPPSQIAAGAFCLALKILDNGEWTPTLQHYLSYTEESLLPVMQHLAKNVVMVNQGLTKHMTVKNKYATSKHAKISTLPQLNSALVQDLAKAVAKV

| pIC50 [1] | pIC50 [2] | Oral exposure AUC0-t [3] [µM·h] | Structure (SMILES) |
| --- | --- | --- | --- |
| 7.43 | 8.05 |  | CS(=O)(=O)N1CCC(Nc2ncc3cc(C(F)F)nc(N[C@@H]4CCCC4(F)F)c3n2)CC1 (single isomer, unassigned) [Compound 22] |
| 6.75 |  | 3.143 | Cc1cn(C)nc1Nc1nc(C(F)F)cc2cnc(NC3CCN(S(C)(=O)=O)CC3)nc12 [Compound 19] |
| 6.98 |  | 2.746 | Cn1cc(Cl)c(Nc2nc(C(F)F)cc3cnc(NC4CCN(S(C)(=O)=O)CC4)nc23)n1 [Compound 20] |
